IC50 data for 25 molecules are collected here from patent EP4660182A1, “NAV1.7- AND/OR NAV1.8-INHIBITING ARYL PYRIDINE COMPOUNDS, PROCESSES FOR THE PREPARATION THEREOF, COMPOSITIONS, USES, METHODS FOR TREATMENT USING SAME, AND KITS” (Eurofarma Laboratórios S.A., priority 2023, dated 2024).

The target in experiment [1] is T1, human sodium channels Nav 1.8 (Homo sapiens, UniProt Q9Y5Y9).
T1 construct: expressed in transfected cells
Briefly: Automated whole-cell voltage-clamp (ScreenPatch 384P) sodium current block, Nav 1.8. Format: cell-based. Particulars: CHO cells stably expressing human Nav 1.8; inactivation step -40 mV 8 s, test step 10 mV (TP1A); eight concentrations; exposure at least five minutes; room temperature; read-out: Nav1.8 IC50. As to the method: (§1) Biological assays were performed on Chinese hamster ovary (CHO) cells that express human sodium channels Nav 1.8 or Nav 1.7 in a stable manner.
(§2) The experimental protocol voltage-clamp using the whole cell configuration was established on the automated ScreenPatch® 384P platform (SP384PE, Nanion Technologies, Livingston, NJ) and the results were recorded with a Nanion 384-well Patch Clamp chip (NPC) (Nanion Technologies, Livingston, NJ).
(§3) Formula I compounds were diluted in eight concentrations in the extracellular solution composed of saline solution, buffered with HEPES (mM): NaCl, 137; KCl, 4; CaCl2, 3,8; MgCl2, 1; HEPES, 10; Glucose, 10; pH 7.4. The […], 50; CsF, 90; MgCl2, 5; EGTA, 5; HEPES, 10; pH 7.2. The duration of exposure of each compound with cells expressing Nav 1.7 or Nav 1.8 was at least five minutes and the assays were performed at room temperature.
(§4) The measurements of the sodium currents of Nav 1.8 and Nav 1.7 were obtained using the voltage protocol described below.
(§5) A holding voltage of -100 mV was established followed by an inactivation voltage step at -40 mV for 8 seconds, followed by a step of -100 mV for 20 ms, followed by a 20 ms step for 10 mV for Nav 1.8 or 0 mV for Nav 1.7 (TP1A) before returning to the holding voltage of -100 mV.
(§6) The protocol was repeated at a frequency of 0.05 Hz and the amplitude of the current was quantified throughout the recording of the TP1A phase. The variation in the amplitude of the peak current was evaluated according to the formula described below, after exposing the cells expressing the channels to each concentration of the different compounds: % Block = (1−(ITP1A,molecule/ITP1A,basal)×100%, [formula] wherein ITP1A,basal and ITP1A,molecule represent the peaks of sodium current input into TP1A before exposure to the compound and in the presence of the compound, respectively.
(§7) Data were obtained by nonlinear regression (nonlinear least squares) with XLfit for Excel (Microsoft, Redmond, WA).
(§8) The compounds were tested in at least one assay to obtain the value of CI50. For compounds that were tested in two or more assays, the results are described as the means of the CI50 values.

The target of experiment [2] is T2, human sodium channels Nav 1.7 (Homo sapiens, UniProt Q15858).
T2 construct: expressed in transfected cells
Briefly: Automated whole-cell voltage-clamp (ScreenPatch 384P) sodium current block, Nav 1.7. Format: cell-based. Particulars: CHO cells stably expressing human Nav 1.7; inactivation step -40 mV 8 s, test step 0 mV (TP1A); eight concentrations; exposure at least five minutes; room temperature; read-out: Nav1.7 IC50. As to the method: as §1, §2, §3, §4, §5, §6, §7, §8

The structures appear in SMILES notation. A value given as a limit tells only on which side of the number the result lay.

T1 sequence (Q9Y5Y9 whole entry): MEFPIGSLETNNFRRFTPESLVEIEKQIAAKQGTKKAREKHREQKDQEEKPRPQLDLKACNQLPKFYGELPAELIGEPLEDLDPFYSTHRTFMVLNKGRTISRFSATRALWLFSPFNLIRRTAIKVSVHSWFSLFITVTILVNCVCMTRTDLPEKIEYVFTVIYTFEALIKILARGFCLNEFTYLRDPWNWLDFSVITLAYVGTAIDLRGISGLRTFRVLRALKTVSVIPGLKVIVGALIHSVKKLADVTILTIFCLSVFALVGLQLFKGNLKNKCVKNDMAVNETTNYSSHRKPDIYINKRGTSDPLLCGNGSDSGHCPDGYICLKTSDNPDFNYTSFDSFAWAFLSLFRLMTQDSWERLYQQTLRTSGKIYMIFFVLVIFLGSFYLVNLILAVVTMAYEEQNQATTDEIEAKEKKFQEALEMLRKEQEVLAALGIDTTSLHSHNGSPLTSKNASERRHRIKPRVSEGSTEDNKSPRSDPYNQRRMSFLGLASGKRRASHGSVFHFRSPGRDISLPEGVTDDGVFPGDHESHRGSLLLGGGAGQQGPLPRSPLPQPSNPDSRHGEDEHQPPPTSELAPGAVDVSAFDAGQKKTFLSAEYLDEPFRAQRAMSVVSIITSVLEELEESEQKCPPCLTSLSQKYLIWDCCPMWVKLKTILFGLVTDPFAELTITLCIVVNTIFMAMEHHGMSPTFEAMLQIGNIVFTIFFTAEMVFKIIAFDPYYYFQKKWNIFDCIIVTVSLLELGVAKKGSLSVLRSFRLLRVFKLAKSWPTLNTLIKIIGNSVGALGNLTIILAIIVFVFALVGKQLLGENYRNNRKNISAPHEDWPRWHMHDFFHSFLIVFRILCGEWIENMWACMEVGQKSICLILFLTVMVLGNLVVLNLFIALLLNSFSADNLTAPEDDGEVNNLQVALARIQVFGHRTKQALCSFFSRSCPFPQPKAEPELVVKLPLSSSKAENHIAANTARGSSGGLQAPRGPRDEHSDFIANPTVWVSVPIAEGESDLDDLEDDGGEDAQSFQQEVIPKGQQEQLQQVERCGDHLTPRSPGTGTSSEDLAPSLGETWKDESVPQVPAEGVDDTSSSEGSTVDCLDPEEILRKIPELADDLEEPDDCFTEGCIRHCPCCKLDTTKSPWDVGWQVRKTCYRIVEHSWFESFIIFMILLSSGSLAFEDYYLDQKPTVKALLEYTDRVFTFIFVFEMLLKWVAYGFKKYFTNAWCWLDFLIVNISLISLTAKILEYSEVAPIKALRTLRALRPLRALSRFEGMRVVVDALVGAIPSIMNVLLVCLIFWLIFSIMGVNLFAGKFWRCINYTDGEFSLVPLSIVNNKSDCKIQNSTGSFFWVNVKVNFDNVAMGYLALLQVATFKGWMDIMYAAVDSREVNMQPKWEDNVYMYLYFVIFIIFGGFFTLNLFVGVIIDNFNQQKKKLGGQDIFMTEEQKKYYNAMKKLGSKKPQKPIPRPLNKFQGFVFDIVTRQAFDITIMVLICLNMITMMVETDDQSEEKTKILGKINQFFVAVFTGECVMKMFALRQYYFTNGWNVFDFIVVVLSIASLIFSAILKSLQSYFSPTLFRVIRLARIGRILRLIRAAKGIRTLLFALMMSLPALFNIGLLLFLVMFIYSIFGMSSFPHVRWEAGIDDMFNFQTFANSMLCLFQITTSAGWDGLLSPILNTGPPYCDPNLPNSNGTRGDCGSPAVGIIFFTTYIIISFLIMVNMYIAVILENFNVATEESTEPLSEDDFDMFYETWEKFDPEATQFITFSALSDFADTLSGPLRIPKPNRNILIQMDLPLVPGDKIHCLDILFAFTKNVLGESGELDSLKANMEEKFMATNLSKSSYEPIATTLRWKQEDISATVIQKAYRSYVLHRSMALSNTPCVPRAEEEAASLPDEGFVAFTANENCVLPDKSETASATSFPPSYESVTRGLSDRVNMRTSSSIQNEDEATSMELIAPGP
T2 sequence (Q15858 whole entry): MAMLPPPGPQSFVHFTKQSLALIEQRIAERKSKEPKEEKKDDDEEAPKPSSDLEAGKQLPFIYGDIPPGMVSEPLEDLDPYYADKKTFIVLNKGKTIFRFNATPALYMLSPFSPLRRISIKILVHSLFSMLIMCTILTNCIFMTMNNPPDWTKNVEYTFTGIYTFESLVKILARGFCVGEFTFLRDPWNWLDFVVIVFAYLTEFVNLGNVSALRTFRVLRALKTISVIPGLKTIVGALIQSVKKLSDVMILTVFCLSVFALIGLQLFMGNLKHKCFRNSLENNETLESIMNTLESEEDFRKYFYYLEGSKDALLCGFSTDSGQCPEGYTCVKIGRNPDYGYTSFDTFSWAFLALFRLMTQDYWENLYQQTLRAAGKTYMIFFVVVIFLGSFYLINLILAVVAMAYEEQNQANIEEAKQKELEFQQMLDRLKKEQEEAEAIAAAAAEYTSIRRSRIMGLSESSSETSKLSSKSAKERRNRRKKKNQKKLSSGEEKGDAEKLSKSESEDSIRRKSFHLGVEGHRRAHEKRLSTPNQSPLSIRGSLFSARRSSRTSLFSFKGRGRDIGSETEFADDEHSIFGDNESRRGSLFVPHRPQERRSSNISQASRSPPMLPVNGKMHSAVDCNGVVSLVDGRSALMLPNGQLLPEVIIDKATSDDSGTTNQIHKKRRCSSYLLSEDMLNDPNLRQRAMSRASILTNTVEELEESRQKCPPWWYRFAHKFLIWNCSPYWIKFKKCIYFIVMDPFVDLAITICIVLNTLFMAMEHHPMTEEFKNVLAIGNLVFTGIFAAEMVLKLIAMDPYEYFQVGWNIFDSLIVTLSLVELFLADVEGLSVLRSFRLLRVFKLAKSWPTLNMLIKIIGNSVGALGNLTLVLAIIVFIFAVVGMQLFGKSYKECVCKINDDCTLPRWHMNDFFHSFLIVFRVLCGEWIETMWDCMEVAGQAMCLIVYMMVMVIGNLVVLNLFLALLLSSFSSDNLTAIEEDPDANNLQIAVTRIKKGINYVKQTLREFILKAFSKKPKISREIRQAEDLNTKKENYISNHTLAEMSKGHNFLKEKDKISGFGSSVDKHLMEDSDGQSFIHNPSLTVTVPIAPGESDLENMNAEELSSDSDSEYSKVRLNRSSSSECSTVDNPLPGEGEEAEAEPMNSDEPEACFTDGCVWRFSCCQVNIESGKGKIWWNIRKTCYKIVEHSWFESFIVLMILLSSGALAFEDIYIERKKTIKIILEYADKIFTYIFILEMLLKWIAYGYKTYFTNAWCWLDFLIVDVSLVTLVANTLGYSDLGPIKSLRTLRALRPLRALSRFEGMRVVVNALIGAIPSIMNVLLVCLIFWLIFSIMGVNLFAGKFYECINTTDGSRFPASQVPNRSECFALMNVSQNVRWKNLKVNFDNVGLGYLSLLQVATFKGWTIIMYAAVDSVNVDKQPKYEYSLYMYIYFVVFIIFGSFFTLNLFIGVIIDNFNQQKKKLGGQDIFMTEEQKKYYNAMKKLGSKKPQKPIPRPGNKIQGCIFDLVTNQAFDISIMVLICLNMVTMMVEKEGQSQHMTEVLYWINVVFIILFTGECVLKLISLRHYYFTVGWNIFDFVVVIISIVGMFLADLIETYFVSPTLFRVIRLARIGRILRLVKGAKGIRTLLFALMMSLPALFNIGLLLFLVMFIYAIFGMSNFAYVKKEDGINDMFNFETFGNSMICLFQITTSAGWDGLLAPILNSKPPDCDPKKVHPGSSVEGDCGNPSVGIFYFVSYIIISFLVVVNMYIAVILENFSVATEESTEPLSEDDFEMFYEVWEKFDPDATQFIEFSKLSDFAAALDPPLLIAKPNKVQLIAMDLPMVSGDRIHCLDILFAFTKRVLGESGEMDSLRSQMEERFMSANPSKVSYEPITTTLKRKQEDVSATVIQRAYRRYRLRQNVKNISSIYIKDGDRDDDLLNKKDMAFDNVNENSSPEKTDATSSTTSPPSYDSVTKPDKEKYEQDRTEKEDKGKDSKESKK

In general, IC50 refers to the concentration at which inhibition is half-maximal. Regarding `CCOc1ccc(-c2cncc(C(=O)N/N=C/c3ccnn3C(C)C)n2)cn1` [Compound 54, (E)-6-(6-ethoxypyridine-3-yl)-N'-((1-isopropyl-1H-pyrazole-5-yl)methylene)pyrazine-2-carbohydrazide], the IC50 in experiment [1] is under 500 nM; in experiment [2], over 1000 nM.

As for `CCOc1ccc(-c2cncc(C(=O)N/N=C/c3cc(O)nc(OC)c3)n2)cn1` [Compound 43, (E)-6-(6-ethoxypyridine-3-yl)-N'-((2-hydroxy-6-methoxypyridine-4-yl)methylene) pyrazine-2-carbohydrazide], the IC50 in experiment [1] and in experiment [2] was over 1000 nM in each case.

Take `COc1cnc(F)c(/C=N/NC(=O)c2cncc(-c3ccc(OC(F)F)nc3C)n2)c1` [Compound 159, (E)-6-(6-(difluoromethoxy)-2-methylpyridine-3-yl)-N'-((2-fluoro-5-methoxypyridine-3-yl)methylene)pyrazine-2-carbohydrazide]: the IC50 in experiment [1] was under 500 nM; in experiment [2] it was over 1000 nM.

Regarding `CC(O)c1cncc(/C=N/NC(=O)c2cncc(-c3ccc(OC(F)F)nc3)n2)c1` (centres unmarked) [Compound 111, (E)-6-(6-(difluoromethoxy)pyridine-3-yl)-N'-((5-(1-hydroxyethyl)pyridine-3-yl)methylene)pyrazine-2-carbohydrazide], the IC50 in experiment [1] and in experiment [2] was over 1000 nM throughout.

As to `Cc1ccccc1/C=N/NC(=O)c1cncc(-c2ccc(OC(F)(F)F)nc2)n1` [Compound 88, (E)-N'-(2-methylbenzylidene)-6-(6-(trifluoromethoxy)pyridine-3-yl)pyrazine-2-carbohydrazide], the IC50 in experiment [1] and in experiment [2] was under 500 nM throughout.

Turning to `COc1ccc(F)c(/C=N/NC(=O)c2cncc(-c3cnc4nc[nH]c4c3)n2)c1` [Compound 166, (E)-N'-(2-fluoro-5-methoxybenzylidene)-6-(1H-imidazo[4,5-b]pyridine-6-yl) pyrazine-2-carbohydrazide], the IC50 in experiment [1] and in experiment [2] was over 1000 nM throughout.

As for `CCOc1ccc(-c2cncc(C(=O)N/N=C/c3cc(OC)cnc3F)n2)cn1` [Compound 7, (E)-6-(6-ethoxypyridine-3-yl)-N'-((2-fluoro-5-methoxypyridine-3-yl)methylene)pyrazine-2-carbohydrazide], the IC50 in experiment [1] was under 500 nM; in experiment [2], over 1000 nM.

Consider `[2H]C([2H])([2H])COc1ccc(-c2cncc(C(=O)N/N=C/c3cc(OC)cnc3F)n2)cn1` [Compound 168, (E)-6-(6-(ethoxy-2,2,2-d3)pyridine-3-yl)-N'-((2-fluoro-5-methoxypyridine-3-yl)methylene)pyrazine-2-carbohydrazide], for which the IC50 was under 500 nM in experiment [1] and over 1000 nM in experiment [2].

With `CCOc1ccc(-c2nc(C(=O)N/N=C/c3cc(OC)ccc3F)cn(C)c2=O)cn1` [Compound 76, (E)-6-(6-ethoxypyridine-3-yl)-N'-(2-fluoro-5-methoxybenzylidene)-4-methyl-5-oxo-4,5-dihydropyrazine-2-carbohydrazide], the IC50 in experiment [1] and in experiment [2] was over 1000 nM throughout.

`COc1cncc(/C=N/NC(=O)c2cncc(-c3ccc(OC(F)F)nc3)n2)c1` [Compound 107, (E)-6-(6-(difluoromethoxy)pyridine-3-yl)-N'-((5-methoxypyridine-3-yl)methylene)pyrazine-2-carbohydrazide]: the IC50 in experiment [1] and in experiment [2] was over 1000 nM each time.

For the molecule `CCOc1ccc(-c2cncc(C(=O)N/N=C/c3cc(OC)ccc3O)n2)cn1` [Compound 19, (E)-6-(6-ethoxypyridine-3-yl)-N'-(2-hydroxy-5-methoxybenzylidene)pyrazine-2-carbohydrazide], the IC50 in experiment [1] was 500 to 1000 nM; in experiment [2], over 1000 nM.

`COc1cnc(F)c(/C=N/N(C)C(=O)c2cncc(-c3ccc(OC(F)F)nc3)n2)c1` [Compound 176, (E)-6-(6-(difluoromethoxy)pyridine-3-yl)-N'-((2-fluoro-5-methoxypyridine-3-yl)methylene)-N-methylpyrazine-2-carbohydrazide]: the IC50 in experiment [1] and in experiment [2] was over 1000 nM throughout.

Turning to `CCOc1ccc(-c2cncc(C(=O)N/N=C/c3cc(CN)ccc3F)n2)cn1` [Compound 13, (E)-N'-(5-(aminomethyl)-2-fluorobenzylidene)-6-(6-ethoxypyridine-3-yl)pyrazine-2-carbohydrazide], the IC50 in experiment [1] and in experiment [2] was over 1000 nM each time.

As to `CCOc1ccc(-c2cncc(C(=O)N/N=C/c3cc(N4CCC4)ccc3F)n2)cn1` [Compound 38, (E)-N'-(5-(azetidin-1-yl)-2-fluorobenzylidene)-6-(6-ethoxypyridine-3-yl)pyrazine-2-carbohydrazide], the values for the IC50 in experiment [1] and in experiment [2] were under 500 nM and over 1000 nM, respectively.

For `CCOc1ccc(-c2cncc(C(=O)N/N=C/c3cccc(O)n3)n2)cn1` [Compound 40, (E)-6-(6-ethoxypyridine-3-yl)-N'-((6-hydroxypyridine-2-yl)methylene)pyrazine-2-carbohydrazide], the IC50 in experiment [1] and in experiment [2] was over 1000 nM each time.

Regarding `CCOc1ccc(-c2cncc(C(=O)N/N=C/c3cc(C(C)O)ccc3F)n2)cn1` (centres unmarked) [Compound 23, (E)-6-(6-ethoxypyridine-3-yl)-N'-(2-fluoro-5-(1-hydroxyethyl)benzylidene)pyrazine-2-carbohydrazide], the half-maximal inhibitory concentration (IC50) is under 500 nM in experiment [1] and over 1000 nM in experiment [2].

Take `CCOc1ccc(-c2cncc(C(=O)N/N=C/c3cc(OC4CNC4)ccc3F)n2)cn1` [Compound 20, (E)-N'-(5-(azetidine-3-yloxy)-2-fluorobenzylidene)-6-(6-ethoxypyridine-3-yl)pyrazine-2-carbohydrazide]: the IC50 in experiment [1] and in experiment [2] was over 1000 nM each time.

Take `CC(O)c1ccnc(/C=N/NC(=O)c2cncc(-c3ccc(OC(F)F)nc3)n2)c1` (centres unmarked) [Compound 114, (E)-6-(6-(difluoromethoxy)pyridine-3-yl)-N'-((4-(1-hydroxyethyl)pyridine-2-yl)methylene)pyrazine-2-carbohydrazide]: the IC50 in experiment [1] and in experiment [2] was over 1000 nM each time.

On to `CCOc1ccc(-c2cncc(C(=O)N/N=C/c3cc(OC(C)C)ccc3F)n2)cn1` [Compound 5, (E)-6-(6-ethoxypyridine-3-yl)-N'-(2-fluoro-5-isopropoxybenzylidene)pyrazine-2-carbohydrazide], for which the IC50 in experiment [1] and in experiment [2] was under 500 nM each time.

In the case of `CCOc1ccc(-c2cncc(C(=O)N/N=C/c3cc(OC)cnc3O)n2)cn1` [Compound 42, (E)-6-(6-ethoxypyridine-3-yl)-N'-((2-hydroxy-5-methoxypyridine-3-yl)methylene) pyrazine-2-carbohydrazide], the IC50 in experiment [1] and in experiment [2] was over 1000 nM in each case.

Take `O=C(N/N=C/c1cccc(O)n1)c1cncc(-c2ccc(OC(F)F)nc2)n1` [Compound 115, (E)-6-(6-(difluoromethoxy)pyridine-3-yl)-N'-((6-hydroxypyridine-2-yl)methylene) pyrazine-2-carbohydrazide]: the IC50 in experiment [1] and in experiment [2] was over 1000 nM throughout.

Turning to `CCOc1ccc(-c2cncc(C(=O)N/N=C/c3ncoc3C)n2)cn1` [Compound 62, (E)-6-(6-ethoxypyridine-3-yl)-N'-((5-methyloxazole-4-yl)methylene)pyrazine-2-carbohydrazide], the IC50 was 500 to 1000 nM in experiment [1] and over 1000 nM in experiment [2].

For `COc1ccc(F)c(/C=N/NC(=O)c2cncc(-c3ccc(OCC(C)O)nc3)n2)c1` (centres unmarked) [Compound 138, (E)-N'-(2-fluoro-5-methoxybenzylidene)-6-(6-(2-hydroxypropoxy)pyridine-3-yl) pyrazine-2-carbohydrazide], the IC50 in experiment [1] and in experiment [2] was over 1000 nM in each case.

`COc1ccnc(/C=N/NC(=O)c2cncc(-c3ccc(OC(F)(F)F)nc3)n2)c1` [Compound 85, (E)-N'-((4-methoxypyridine-2-yl)methylene)-6-(6-(trifluoromethoxy)pyridine-3-yl)pyrazine-2-carbohydrazide]: the values for the IC50 in experiment [1] and in experiment [2] were under 500 nM and over 1000 nM, respectively.

Regarding `CCOc1ccc(-c2cncc(C(=O)N/N=C/c3ocnc3C)n2)cn1` [Compound 61, (E)-6-(6-ethoxypyridine-3-yl)-N'-((4-methyloxazole-5-yl)methylene)pyrazine-2-carbohydrazide], the IC50 in experiment [1] and in experiment [2] was over 1000 nM throughout.
